# Columns and labels:
# Experiment in all cases: relative viability (nuclei count vs DMSO), 5 days (fraction); higher = more cells survive
# [1] = compound: CC1=C(N=C(N=C1N)[C@H](CC(=O)N)NC[C@@H](C(=O)N)N)C(=O)N[C@@H]([C@H](C2=CN=CN2)OC3C(C(C(C(O3)CO)O)O)OC4C(C(C(C(O4)CO)O)OC(=O)N)O)C(=O)N[C@H](C)[C@H]([C@H](C)C(=O)N[C@@H]([C@@H](C)O)C(=O)NCCC5=NC(=CS5)C6=NC(=CS6)C(=O)NCCC[S+](C)C)O [Bleomycin] + C[C@]1(O)C[C@@H](c2nc(-c3ccc4ccc(-c5ccccc5)nc4c3)c3c(N)nccn32)C1 [Linsitinib] (partner 1 µM); conditions: main component drawn
# Summary of the method: (§1)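 Lung cancer cell lines, seeded in 1536-well plates, were treated the following day by pin tool with a single drug or with five library-drug doses (not always all listed) in √10 steps on top of a fixed anchor-drug dose. Cells were fixed and nuclei stained in one step after 5 days, and nuclei were counted. Relative viability is the nuclei count for treated wells divided by that for vehicle wells, reported as medians of duplicate plates.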
# [2] = compound: COc1cc([C@@H]2c3cc4c(cc3[C@@H](O[C@@H]3O[C@@H]5CO[C@@H](C)O[C@H]5[C@H](O)[C@H]3O)[C@H]3COC(=O)[C@H]23)OCO4)cc(OC)c1O [Etoposide] + CC(=O)c1c(C)c2cnc(Nc3ccc(N4CCNCC4)cn3)nc2n(C2CCCC2)c1=O [Palbociclib] (partner 0.5 µM)
# Summary of the method: as §1
# [3] = compound: COc1cc([C@@H]2c3cc4c(cc3[C@@H](O[C@@H]3O[C@@H]5CO[C@@H](C)O[C@H]5[C@H](O)[C@H]3O)[C@H]3COC(=O)[C@H]23)OCO4)cc(OC)c1O [Etoposide] + Cc1nc(Nc2ncc(C(=O)Nc3c(C)cccc3Cl)s2)cc(N2CCN(CCO)CC2)n1 [Dasatinib] (partner 0.075 µM)
# Summary of the method: as §1
# [4] = compound: CC1=C(N=C(N=C1N)[C@H](CC(=O)N)NC[C@@H](C(=O)N)N)C(=O)N[C@@H]([C@H](C2=CN=CN2)OC3C(C(C(C(O3)CO)O)O)OC4C(C(C(C(O4)CO)O)OC(=O)N)O)C(=O)N[C@H](C)[C@H]([C@H](C)C(=O)N[C@@H]([C@@H](C)O)C(=O)NCCC5=NC(=CS5)C6=NC(=CS6)C(=O)NCCC[S+](C)C)O [Bleomycin] + CC(C)C[C@H](NC(=O)[C@H](Cc1ccccc1)NC(=O)c1cnccn1)B(O)O [Bortezomib] (partner 0.002 µM); conditions: main component drawn
# Summary of the method: as §1
Cell Line,relative viability ([1]; first compound 0.01 µM),relative viability ([1]; first compound 0.03162 µM),relative viability ([1]; first compound 0.1 µM),relative viability ([1]; first compound 0.3162 µM),relative viability ([1]; first compound 1 µM),relative viability ([2]; first compound 0.01 µM),relative viability ([2]; first compound 0.03162 µM),relative viability ([2]; first compound 0.1 µM),relative viability ([2]; first compound 0.3162 µM),relative viability ([2]; first compound 1 µM),relative viability ([3]; first compound 0.01 µM),relative viability ([3]; first compound 0.03162 µM),relative viability ([3]; first compound 0.1 µM),relative viability ([3]; first compound 0.3162 µM),relative viability ([3]; first compound 1 µM),relative viability ([4]; first compound 0.01 µM),relative viability ([4]; first compound 0.03162 µM),relative viability ([4]; first compound 0.1 µM),relative viability ([4]; first compound 0.3162 µM),relative viability ([4]; first compound 1 µM)
HOP-62,0.485,0.554,0.335,0.135,0.112,0.408,0.478,0.464,0.356,0.273,0.584,0.676,0.492,0.621,0.363,0.359,0.189,0.0755,0.113,0.072
LC-2-ad,0.725,0.691,0.352,0.178,0.118,0.52,0.509,0.557,0.455,0.452,0.546,0.612,0.451,0.244,0.142,0.943,0.624,0.316,0.127,0.0954
LCLC-97TM1,0.138,0.165,0.141,0.109,0.0963,0.243,0.248,0.169,0.165,0.121,0.858,0.943,0.933,0.681,0.179,0.173,0.17,0.0959,0.077,0.0823
LCLC-103H,1.03,1.06,1.06,1.13,0.564,0.526,0.553,0.509,0.457,0.407,0.466,0.482,0.417,0.546,0.42,1.07,1.12,1.1,0.556,0.467
LOU-NH91,0.78,0.611,0.522,0.37,0.317,0.556,0.545,0.516,0.468,0.428,0.579,0.601,0.492,0.566,0.395,0.493,0.439,0.355,0.335,0.348
LU99A,0.379,0.348,0.252,0.166,0.127,0.392,0.427,0.266,0.226,0.166,0.427,0.727,0.262,0.395,0.142,0.763,0.83,0.602,0.167,0.128
LXF-289,0.899,0.91,0.839,0.389,0.186,0.618,0.606,0.621,0.487,0.331,0.209,0.217,0.231,0.206,0.0795,0.861,0.944,0.775,0.27,0.135
NCI-H23,0.292,0.253,0.225,0.152,0.137,0.504,0.515,0.485,0.334,0.236,0.805,0.821,0.504,0.384,0.185,0.424,0.374,0.276,0.165,0.2
NCI-H322M,0.961,1.01,0.95,1.1,0.684,0.526,0.481,0.436,0.467,0.445,0.272,0.237,0.232,0.26,0.254,1.07,1.13,1.36,0.708,0.592
NCI-H441,,0.57,0.564,0.209,0.255,0.194,0.251,0.177,0.191,0.128,0.58,0.677,0.398,0.285,0.147,,0.886,0.458,0.226,0.211
NCI-H460,0.448,0.356,0.158,0.0344,0.0252,0.131,0.11,0.111,0.0408,0.0313,0.432,0.509,0.285,0.132,0.0414,0.331,0.286,0.103,0.0317,0.0212
NCI-H520,0.949,0.987,0.973,0.687,0.566,0.256,0.245,0.193,0.254,0.227,0.22,0.239,0.181,0.208,0.269,0.596,0.33,0.708,0.142,0.293
NCI-H647,0.649,0.487,0.321,0.13,0.102,0.423,0.458,0.321,0.258,0.216,0.157,0.161,0.174,0.145,0.036,0.39,0.299,0.223,0.118,0.0632
NCI-H650,0.585,0.791,0.582,0.328,0.199,0.29,0.299,0.26,0.237,0.161,0.457,0.472,0.342,0.372,0.215,0.548,0.697,0.569,0.259,0.214
NCI-H661,0.563,0.423,0.312,0.221,0.217,0.415,0.468,0.332,0.384,0.352,0.787,1.02,0.671,0.586,0.306,0.838,0.603,0.484,0.228,0.251
NCI-H727,0.293,0.251,0.33,0.183,0.34,0.67,0.675,0.581,0.689,0.767,0.4,0.355,,0.37,0.408,0.796,0.853,0.775,0.303,0.37
NCI-H838,0.652,0.314,0.191,0.189,0.159,0.172,0.238,0.169,0.226,0.244,0.338,0.295,0.219,0.271,0.285,0.67,0.204,0.23,0.0877,0.152
NCI-H1355,0.794,0.838,0.783,0.463,0.287,0.423,0.473,0.275,0.355,0.281,0.673,0.692,0.376,0.622,0.251,1.13,1.24,1.03,0.376,0.262
NCI-H1437,0.88,0.936,0.85,0.417,0.357,0.278,0.352,0.279,0.293,0.269,0.585,0.443,0.283,0.29,0.165,0.519,0.44,0.452,0.121,0.303
NCI-H1651,0.862,0.766,0.596,0.27,0.152,0.512,0.515,0.414,0.359,0.178,0.282,0.426,0.385,0.189,0.0972,0.91,0.898,0.664,0.457,0.306
NCI-H1666,0.677,0.543,0.486,0.335,0.269,0.618,0.639,0.662,0.592,0.506,0.796,0.802,0.594,0.361,0.293,0.622,0.427,0.434,0.31,0.261
NCI-H1734,0.73,0.669,0.553,0.311,0.227,0.358,0.374,0.312,0.306,0.242,0.415,0.449,0.312,0.436,0.21,0.732,0.664,0.725,0.239,0.226
NCI-H1755,0.97,0.992,0.981,0.767,0.618,0.436,0.397,0.454,0.429,0.456,0.433,0.452,0.469,0.413,0.394,0.854,0.957,0.827,0.384,0.659
NCI-H1792,0.515,0.484,0.281,0.202,0.189,0.579,0.636,0.598,0.606,0.461,0.699,0.695,0.658,0.72,0.549,0.871,0.958,0.663,0.323,0.283
NCI-H1915,0.891,1.01,0.813,0.428,0.216,0.471,0.569,0.506,0.459,0.375,0.31,0.413,0.236,0.326,0.286,0.645,0.823,0.384,0.179,0.136
NCI-H1975,0.896,0.823,0.806,0.315,0.221,0.548,0.665,0.521,0.331,0.281,0.336,0.426,0.32,0.348,0.214,0.27,0.342,0.27,0.16,0.142
NCI-H1993,0.736,0.745,0.693,0.59,0.518,,0.773,0.481,0.659,0.482,0.619,0.712,0.478,0.546,0.376,1.2,1.06,0.95,0.539,0.548
NCI-H2009,1.12,1.22,1.17,0.864,0.58,0.203,0.213,0.145,0.25,0.148,0.288,0.313,0.218,0.282,0.207,0.852,0.98,1.01,0.358,0.441
NCI-H2023,0.543,0.465,0.321,0.143,0.106,0.312,0.201,0.351,0.201,0.173,0.492,0.554,0.378,0.326,0.125,0.61,0.772,0.548,0.205,0.11
